The text below walks through data of paper PMC6254971, “Antimalarial Activity of Ultra-Short Peptides” (Molecules, 2009).

One experiment has as its system P. falciparum. Also noted: method as in 6 sources, ref 23 = [23]; PMID 16723585; doi:10.1128/AAC.00022-06; 23. Parikh S. Liu J. Sijwali P. Gut J. Goldberg D.E. Rosenthal P.J. Antimalarial effects of human immunodeficiency virus type 1 protease inhibitors differ from those of the aspartic protease inhibitor ||| ref 24 = [24]; PMID 11172676; doi:10.2174/0929867013373787; 24. Meinke P.T. Liberator P. Histone deacetylase: A target for antiproliferative and antiprotozoal agents Current Med. Chem. 2001 8 211 235 10.2174/0929867013373787 11172676 ||| ref 12 = [12]; PMID 16643062; doi:10.1021/np050549h; 12. Thongtan J. Saenboonrueng J. Rachtawee P. Isaka M. An antimalarial tetrapeptide from the entomopathogenic fungus Hirsutella sp. BCC 1528 J. Nat. Prod. 2006 69 713 714 10.1021/np050549h 16643062 ||| ref 25 = [25]; PMID 18305429; doi:10.3390/molecules13020432; 25. Sathe M. Thavaselvam D. Srivastava A.K. Kaushik M.P. Synthesis and antimalarial evaluation of cyclic β-amino acid-containing dipeptides Molecules 2008 13 432 443 10.3390/molecules13020432 18305429 ||| ref 30, 31 = [30]; PMID 1939639; doi:10.1172/JCI115456; 30. Rosenthal P.J. Wollish W.S. Palmer J.T. Rasnick D. Antimalarial effects of peptide inhibitors of a Plasmodium falciparum cysteine proteinase J. Clin. Invest. 1991 88 1467 1472 10.1172/JCI115456 19 || [31]; PMID 8807047; doi:10.1128/aac.40.7.1600; 31. Rosenthal P.J. Olson J.E. Lee G.K. Palmer J.T. Klaus J.L. Rasnick D. Antimalarial effects of vinyl sulfone cysteine proteinase inhibitors Antimicrob. Agents Chemother. 1996 40 1600 1603 8807047 10 ||| ... Particulars: cited from earlier work; for IC50 in vitro: maturation schizonts and total growth inhibition assays; for pIC50: read-out: IC50 against P. falciparum.

Another experiment deals with P. berghei. Also noted: method as in 2 sources, ref 29 = [29]; PMID 8917558; doi:10.1073/pnas.93.23.13143; 29. Darkin-Rattray S.J. Gurnett A.M. Myers R.W. Dulski P.M. Crumley T.M. Allocco J.J. Cannova C. Meinke P.T. Colletti S.L. Bednarek M.A. Singh S.B. Goetz M.A. Dombrowski A.W. Polishook J.D. Schmatz D. ||| ref 25 = [25]; PMID 18305429; doi:10.3390/molecules13020432; 25. Sathe M. Thavaselvam D. Srivastava A.K. Kaushik M.P. Synthesis and antimalarial evaluation of cyclic β-amino acid-containing dipeptides Molecules 2008 13 432 443 10.3390/molecules13020432 18305429. Particulars: cited from earlier work.

Experiment [1] relates to Plasmodium berghei schizonts (ANKA 2.34), chloroquine-sensitive. As to the kind of experiment: microbe, parasite or virus in culture. Particulars: for Chemosuppression of P. berghei schizont cultures (%): compound 200 μM, schizonts counted in 2,000 erythrocytes. Here is the method:
Mature P. berghei schizonts were prepared as described by Thathy and Menard. […] Parasites were incubated for 16 h at 37 °C as described. Chloroquine (C6628 Sigma Chloroquine diphosphate salt solid, ≥98% purity) was used as positive control. Samples of 0.5 mL of each culture were taken to prepare smears and used to count numbers of schizonts in 2,000 erythrocytes. The IC50 values of each compound were determined using concentrations of 5, 50, 100, and 200 µM, according to Khalid et al., and by extrapolation from the concentration response curve. The IC50 value represents the drug concentration producing a 50% reduction in the number of P. berghei schizonts (compared to drug-free control cultures).

The subject of experiment [2] is trophozoite cysteine proteinase (TCP). Also noted: method as in PMID 1939639, PMID 8807047. Particulars: cited from earlier work.
The next experiment has as its system malarial infected mice. Particulars: four days of subcutaneous administration; cited from earlier work.
The mark [3] stands for this setting: 16 h at 37 °C, duplicate, averaged.
[4] abbreviates: read-out: IC50 (50% reduction in the number of P. berghei schizonts), 16 h at 37 °C, concentrations 5, 50, 100, 200 µM, extrapolation from concentration response curve, duplicate, averaged.

pIC50: −log10 of the molar value. Like-named read-outs stand apart in the source and are kept apart here. Non-standard residues stand in square brackets, D forms with d. Residues, ends and D or L forms follow the SMILES beside them. No end group written: not given here. *: point of attachment. Orn = NCCC[C@H](N)C(=O)O; Cbz = O=C(OCc1ccccc1)*; CH2F = FC* Some results are limits rather than exact numbers.

In the case of “2-(2-tert-butoxycarbonylamino-3-phenyl-propionylamino)-cyclooctanecarboxylic acid methyl ester”, the IC50 in vitro with P. falciparum was 3.64 µg/mL. Also, the “in vivo antimalarial activity against P. berghei” value in the experiment with P. berghei is “active in vivo”. Turning to “2-(2-tert-butoxycarbonylamino-4-methylpentanoyl-amino)-cyclooctanecarboxylic acid methyl ester”, the IC50 in vitro in the experiment with P. falciparum is 3.87 µg/mL. A word on the pIC50: it is the negative decadic logarithm of the IC50, by convention in mol/L. In the case of `CCN(CC)CCCC(C)Nc1ccnc2cc(Cl)ccc12` (stereo not shown) [Chloroquine], in experiment [1] (Plasmodium berghei, 16 h, read-out: IC50 (50% reduction in the number of P. berghei schizonts)), the pIC50 was 7.22. Besides, the “Chemosuppression of P. berghei schizont cultures (%)” value in experiment [1] (setting [3]) stood at 100%. In experiment [1] (16 h), `CC[C@H](C)[C@H](N)C(=O)N[C@@H](CCCCN)C(=O)N[C@@H](Cc1ccccc1)C(=O)N[C@@H](CCCN)C(=O)O` [Compound 1, Ile-Lys-Phe-Orn] (H-IKF[Orn]-OH) had a pIC50 of 4.49. `CC(C)[C@H](N)C(=O)N[C@@H](CCCCN)C(=O)N[C@@H](Cc1ccccc1)C(=O)N[C@@H](CCCN)C(=O)O` [Compound 2, Val-Lys-Phe-Orn] (H-VKF[Orn]-OH) gave a negative-log IC50 (pIC50) in experiment [1] (16 h) of 5.00.

In experiment [1] (16 h), `NCCCC[C@H](N)C(=O)N[C@@H](CCCN)C(=O)N[C@@H](Cc1ccccc1)C(=O)N[C@@H](CCCN)C(=O)O` [Compound 3, Lys-Orn-Phe-Orn] (H-K[Orn]F[Orn]-OH) gave a pIC50 of 4.87. As to `NCCCC[C@H](N)C(=O)N[C@@H](Cc1ccccc1)C(=O)N[C@@H](Cc1ccccc1)C(=O)N[C@@H](CCCN)C(=O)O` [Compound 5, Lys-Phe-Phe-Orn] (H-KFF[Orn]-OH), in experiment [1] (16 h), the pIC50 is 5.59. `CC(C)[C@H](NC(=O)[C@H](CCCCN)NC(=O)[C@H](Cc1ccccc1)NC(=O)[C@@H](N)CCCN)C(=O)O` [Compound 6, Orn-Phe-Lys-Val] (H-[Orn]FKV-OH; N-terminus assumed) had a pIC50 in experiment [1] (16 h) of less than 3.70. In addition, the “Chemosuppression of P. berghei schizont cultures (%)” value in experiment [1] (setting [3]) came to 26.58%. Moreover, the “antimalarial activity in words (P. berghei schizont cultures)” value in experiment [1] (in vitro, 16 h) was “inactive”.

As to `CC(C)[C@H](NC(=O)[C@@H](N)CCCCN)C(=O)N1CCC[C@H]1C(=O)N[C@@H](CCCN)C(=O)O` [Compound 7, Lys-Val-Pro-Orn] (H-KVP[Orn]-OH; N-terminus assumed), in experiment [1] (16 h), the pIC50 was less than 3.70. The “Chemosuppression of P. berghei schizont cultures (%)” value in experiment [1] (setting [3]) turned out to be 27.39%. In the case of `CC(C)[C@H](NC(=O)[C@@H](N)CCCCN)C(=O)N[C@@H](Cc1ccccc1)C(=O)N1CCC[C@H]1C(=O)O` [Compound 8, Lys-Val-Phe-Pro] (H-KVFP-OH), the pIC50 in experiment [1] (setting [4]) is 4.29. Regarding `CC(C)[C@H](NC(=O)[C@H](CCCN)NC(=O)[C@@H](N)Cc1ccccc1)C(=O)O` [Compound 9, Phe-Orn-Val] (H-Phe-[Orn]-Val-OH), the pIC50 in experiment [1] (16 h) is 3.92. As to `COC(=O)N[C@H](C(=O)N[C@@H](Cc1ccccc1)[C@@H](O)CN(Cc1ccc(-c2ccccn2)cc1)NC(=O)[C@@H](NC(=O)OC)C(C)(C)C)C(C)(C)C` [atazanavir], the “inhibition of P. falciparum in vitro” value with P. falciparum was “inhibit P. falciparum in vitro”. On to `CC(C)(C)NC(=O)[C@@H]1C[C@@H]2CCCC[C@@H]2CN1C[C@@H](O)[C@H](Cc1ccccc1)NC(=O)[C@H](CC(N)=O)NC(=O)c1ccc2ccccc2n1` [saquinavir], for which, in the experiment on P. falciparum, the “inhibition of P. falciparum in vitro” value is “inhibit P. falciparum in vitro”. “Cbz-Phe-Arg-CH2F [peptidylfluoromethyl ketone]”: the “inhibition of trophozoite cysteine proteinase” value in experiment [2] is “very potent inhibitor”. Take F[Orn]F[Orn] [Compound 4]: the “Chemosuppression of P. berghei schizont cultures (%)” value in experiment [1] (setting [3]) is listed as 85.94%. Besides, the pIC50 in experiment [1] (setting [4]) was 5.48. With HC-toxin I, in the experiment on P. falciparum, the “MIC against P. falciparum” value is 0.031 µg/mL. For the compound apicidin, in the experiment on P. falciparum, the “MIC against P. falciparum” value was 0.125 µg/mL. The “in vivo antimalarial activity against P. berghei” value with P. berghei is recorded as “potent in vivo antimalarial agent”.

Consider apicidin A, for which the “MIC against P. falciparum” value in the experiment on P. falciparum was 0.125 µg/mL.

As for hirsutellic A acid, the pIC50 with P. falciparum is 5.10. Regarding morpholine urea (Mu)-Phe-HPh-CH2F, the “cured malarial infected mice” value with malarial infected mice is listed as 80%.

As for pepstatin A, in the experiment on P. falciparum, the pIC50 was 5.12.
